In ChEMBL document CHEMBL1201862, “PubChem BioAssay data set” (2004) one finds EC50, IC50 and AC50 data, which are given here for 4 molecules.

The target in assay [1] is T1, Neuropeptide Y receptor type 2 (Homo sapiens, UniProt P49146).
T1 sequence (P49146 whole entry): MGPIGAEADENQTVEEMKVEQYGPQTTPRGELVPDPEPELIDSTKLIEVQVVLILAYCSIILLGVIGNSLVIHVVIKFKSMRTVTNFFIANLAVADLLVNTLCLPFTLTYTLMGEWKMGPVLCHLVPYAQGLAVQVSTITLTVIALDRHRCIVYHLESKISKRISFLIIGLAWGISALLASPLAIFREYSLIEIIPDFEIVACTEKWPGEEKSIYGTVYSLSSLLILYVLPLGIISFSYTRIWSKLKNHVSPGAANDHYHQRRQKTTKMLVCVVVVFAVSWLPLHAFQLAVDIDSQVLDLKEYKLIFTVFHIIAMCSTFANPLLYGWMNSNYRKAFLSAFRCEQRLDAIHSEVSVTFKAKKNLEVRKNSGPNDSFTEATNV
As to the kind of experiment: Fluorescence counterscreen for potentiators or agonists of NPY-Y1: Cell-based high-throughput dose response assay for potentiators or agonists of NPY-Y2. It is filed as functional. For orientation: The purpose of a counterscreen is to sort out artefacts and off-target activity.

Assay [2] concerns the target T1, Neuropeptide Y receptor type 2. In words: Fluorescence-based counterscreen for agonists of NPY-Y1: cell-based high-throughput dose response assay for agonists of NPY-Y2. The class given is functional.
The subject of another assay is HEK293. In words: Fluorescence-based counterscreen for potentiators or agonists of NPY-Y1: cell-based high-throughput dose response assay for inhibitors of cyclic nucleotide gated ion channel (CNGC) activity. In this assay, the parental HEK293 cell line transfected with a cyclic-nucleotide gated ion channel (CNGC)-based cAMP sensor is used to measure inhibition of isoproterenol-induced CNGC …. The class given is functional. The settings on record: Homo sapiens.

The target in assay [3] is T2, Neuropeptide Y receptor type 1 (Homo sapiens, UniProt P25929).
T2 sequence (P25929 whole entry): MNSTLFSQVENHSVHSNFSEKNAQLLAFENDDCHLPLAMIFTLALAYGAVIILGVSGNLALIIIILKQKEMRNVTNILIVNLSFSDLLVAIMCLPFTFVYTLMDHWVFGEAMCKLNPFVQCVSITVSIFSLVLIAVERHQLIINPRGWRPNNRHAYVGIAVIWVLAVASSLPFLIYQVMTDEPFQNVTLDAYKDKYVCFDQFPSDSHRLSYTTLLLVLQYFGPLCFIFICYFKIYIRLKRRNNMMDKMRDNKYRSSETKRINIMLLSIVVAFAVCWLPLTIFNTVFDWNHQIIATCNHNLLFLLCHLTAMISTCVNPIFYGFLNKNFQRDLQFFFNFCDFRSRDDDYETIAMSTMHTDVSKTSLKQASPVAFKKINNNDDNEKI
As to the kind of experiment: Fluorescence-based dose response cell-based high-throughput screening assay for potentiators or agonists of NPY-Y1. It is filed as functional.

Assay [4] concerns the target T2, Neuropeptide Y receptor type 1. As to the kind of experiment: Fluorescence-based dose response cell-based high-throughput screening assay for agonists of NPY-Y1. [Related pubchem assays: 1697 (Screening assay (NPY-Y1 agonists).), 1359 (Screening assay (NPY-Y2 potentiators or agonists).), 1304 (Screening assay (NPY-Y1 potentiators or agonists).), 1704 (Screening assay (CNGC inhibitors).), 1791 (Summary AID.)]. It is filed as functional.

For assay [5], the target named is T3, Mannose-6-phosphate isomerase (Homo sapiens, UniProt P34949).
T3 sequence (P34949 whole entry): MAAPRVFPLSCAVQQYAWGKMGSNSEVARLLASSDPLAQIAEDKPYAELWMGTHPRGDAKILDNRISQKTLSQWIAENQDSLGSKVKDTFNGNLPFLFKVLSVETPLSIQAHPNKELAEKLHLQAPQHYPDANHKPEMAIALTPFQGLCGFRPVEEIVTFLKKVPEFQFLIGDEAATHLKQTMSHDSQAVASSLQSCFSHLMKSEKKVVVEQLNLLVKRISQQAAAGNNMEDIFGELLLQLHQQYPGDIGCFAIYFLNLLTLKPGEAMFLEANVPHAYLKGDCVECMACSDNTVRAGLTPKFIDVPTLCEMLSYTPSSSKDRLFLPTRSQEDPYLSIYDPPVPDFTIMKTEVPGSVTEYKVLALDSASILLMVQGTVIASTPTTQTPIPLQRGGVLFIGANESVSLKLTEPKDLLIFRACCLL
As to the kind of experiment: human PMI inhibitors, high substrate, primary screen, biochemical, fluorescence intensity, high mannose 6-phosphate (AID 1220).

For assay [6], the target named is Heat shock protein HSP 90-alpha (Homo sapiens, UniProt P07900). It is filed as functional, organism-based.
Assay [7] is described as follows: human group III sPLA2 inhibitors, dose response, biochemical, QFRET, IC50 (AID 743457).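 Note: green fluorescence rise as the enzyme cleaves BODIPY PC-A2 in liposomes; potency for inhibition of the enzyme.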
Assay [8] deals with Disintegrin and metalloproteinase domain-containing protein 17 (Homo sapiens, UniProt P78536). As to the kind of experiment: exosite inhibitors of ADAM17, dose response, biochemical (AID 743260).
A short description of assay [9]: ADAM10 protease inhibitors, dose response, selectivity assay for ADAM17 exosite inhibitor project, biochemical, FRET peptide substrate, recombinant human ADAM10 (AID 743259).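 Note: ADAM10 enzyme cleaving a FRET peptide substrate.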
The target of the next assay is Prothrombin (Homo sapiens, UniProt P00734). In words: Thrombin 1536 HTS Dose Response Confirmation. [Related pubchem assays: 1046 (Thrombin 1536 HTS; hits were confirmed in this assay)]. The class given is functional.
The nature of assay [10]: inhibitors of intracellular T. cruzi replication, confirmation, NIH3T3 host cells, beta-gal luminescence (AID 2044).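 Note: intracellular parasites grown in NIH/3T3 mouse fibroblasts as host cells; luminescent beta-galactosidase reporter signal from transgenic T. cruzi replicating inside host cells; inhibitors lower the luminescence signal.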 The class given is functional, cell-based.
Assay [11] can be described thus: cytotoxicity toward NIH3T3 fibroblasts, dose response, counter-screen, cell-based, ATP luminescence, mouse fibroblasts (AID 2010).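 Note: cells exposed to compound for about 90 hours before reading.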 The class given is functional.
The subject of the next assay is Vero. In words: West Nile virus antiviral activity, cell-based, CPE readout (AID 1621). The settings on record: Chlorocebus sabaeus. It is filed as functional.
Assay [12] can be described thus: cytotoxicity in HEK-293T cells, dose response, cytotoxicity control for TCR NF-kB inhibitor project, luminescence, T-cell screen hits (AID 489026).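 Note: cells exposed to compound about 14 hours before the viability readout.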 It is filed as functional, cell-based.
In assay [13] the target is T4, Microphthalmia-associated transcription factor (Homo sapiens, UniProt O75030).
T4 sequence (O75030 whole entry): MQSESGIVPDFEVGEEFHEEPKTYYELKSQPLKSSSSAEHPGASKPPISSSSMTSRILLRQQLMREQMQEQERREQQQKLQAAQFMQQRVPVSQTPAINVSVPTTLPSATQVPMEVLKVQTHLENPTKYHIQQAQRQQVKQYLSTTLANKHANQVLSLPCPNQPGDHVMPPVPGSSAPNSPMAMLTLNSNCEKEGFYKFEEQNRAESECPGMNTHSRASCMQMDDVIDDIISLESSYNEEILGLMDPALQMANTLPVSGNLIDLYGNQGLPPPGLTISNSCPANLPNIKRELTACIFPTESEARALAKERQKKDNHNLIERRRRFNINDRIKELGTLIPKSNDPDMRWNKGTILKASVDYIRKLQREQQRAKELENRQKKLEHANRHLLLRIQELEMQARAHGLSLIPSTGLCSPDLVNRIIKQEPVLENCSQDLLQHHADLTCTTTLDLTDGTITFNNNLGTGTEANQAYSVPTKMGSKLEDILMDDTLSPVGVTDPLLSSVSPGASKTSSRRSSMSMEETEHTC
In words: TRPM1 promoter luciferase signal decrease, dose response, MITF inhibitor project, cell-based, SK-MEL-5, cherry-picked, set 3 (AID 493073).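 Note: SK-MEL-5 melanoma cells with luciferase driven by the MITF target TRPM1 promoter.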 It is filed as functional.

Calls of active or inactive are those of the source. Some results are limits rather than exact numbers.

As usually defined, the EC50 is the concentration at which the effect is half-maximal. As a reminder, the IC50 is the concentration at which inhibition is half-maximal. As a reminder, the AC50 is the concentration at which the activity in the assay is half-maximal.

Disintegrin and metalloproteinase domain-containing protein 17, sequence (P78536 whole entry, the tested form may be a part): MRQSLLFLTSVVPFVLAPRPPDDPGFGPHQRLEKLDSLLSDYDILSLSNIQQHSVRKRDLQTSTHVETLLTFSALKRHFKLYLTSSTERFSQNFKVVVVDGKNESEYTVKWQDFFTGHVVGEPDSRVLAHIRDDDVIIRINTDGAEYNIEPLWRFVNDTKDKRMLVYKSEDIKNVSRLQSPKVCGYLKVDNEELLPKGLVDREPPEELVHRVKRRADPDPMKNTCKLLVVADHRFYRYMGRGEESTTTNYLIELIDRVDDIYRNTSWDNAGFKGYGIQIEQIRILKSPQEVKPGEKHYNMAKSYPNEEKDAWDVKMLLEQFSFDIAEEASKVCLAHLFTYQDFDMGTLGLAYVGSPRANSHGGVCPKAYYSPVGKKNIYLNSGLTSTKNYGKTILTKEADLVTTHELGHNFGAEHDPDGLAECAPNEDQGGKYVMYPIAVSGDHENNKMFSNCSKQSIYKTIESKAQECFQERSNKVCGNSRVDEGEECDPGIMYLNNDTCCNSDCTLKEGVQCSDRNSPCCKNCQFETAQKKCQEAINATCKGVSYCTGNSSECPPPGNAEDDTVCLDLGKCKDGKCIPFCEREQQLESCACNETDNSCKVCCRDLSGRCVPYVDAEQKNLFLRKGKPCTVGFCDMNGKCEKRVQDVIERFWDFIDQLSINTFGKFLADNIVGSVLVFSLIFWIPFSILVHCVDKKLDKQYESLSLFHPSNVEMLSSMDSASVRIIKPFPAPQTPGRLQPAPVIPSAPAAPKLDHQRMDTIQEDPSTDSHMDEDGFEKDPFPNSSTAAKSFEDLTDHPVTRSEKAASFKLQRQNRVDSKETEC

Consider `CC(C)/N=c1\scc(-c2cccs2)n1/N=C/c1ccc(O)c(O)c1O`, for which the EC50 in assay [1] was 22 µM (not active); in assay [2], 24.3 µM (not active); in assay [3], > 35.4 µM (not active); in assay [4], > 3.94 µM (active). For the same molecule, the IC50 is > 35.4 µM (not active) in the assay with HEK293; > 50 µM (not active) in assay [5]; 41.3 µM (inactive) in assay [7]; 31.2 µM (inactive) in [8]; 12.8 µM (inactive) in [9]. In addition, the concentration at half-maximal activity (AC50) in assay [6] was 3.46 µM (active).
`COc1ccc(C(=O)n2c(SC)nc3cc4c(cc32)OCCO4)cc1`: the concentration for half-maximal inhibition (IC50) on Prothrombin is 0.955 µM (active).
On to `CC(C)Cc1ccc(CN2CCCC(NC(=O)CSc3nncn3C)C2)cc1` (configuration not stated), for which the figures for the EC50 (in [10]; in assay [11]; in “cells”) were < 0.1 µM (active), > 60 µM (not active) and 0.071 µM (active), respectively.
In the case of `CC(C)c1oc(=O)cc2c1[C@@H](O)[C@H]1OC(=O)[C@@]3(C)C[C@@H](O)[C@@H](O)[C@@]2(C)C13` (some centres not stated), the values for the half-inhibitory concentration (IC50) (in the assay on Vero; in assay [12]) were 30.5 µM (active) and > 80 µM (inactive), respectively. In addition, the concentration at half-maximal activity (AC50) in [13] is 1.63 µM (active).
